Test results published in the kinase profiling compilation of Christmann-Franck et al. (2016).

How the values were obtained:
Test in all cases: radiometric filter-binding kinase assay, Kinase HotSpot
Details in all cases: compound 0.5 µM; ATP 10 µM
MAP4K2 (human) = MAP4K2 (human) (UniProt Q12851)
MAPK13 (human) = MAPK13 (human) (UniProt O15264)
RIPK2 (human) = RIPK2 (human) (UniProt O43353)
MAP3K3 (human) = MAP3K3 (human) (UniProt Q99759)
HCK (human) = HCK (human) (UniProt P08631)
TTK (human) = TTK (human) (UniProt P33981)
OXSR1 (human) = OXSR1 (human) (UniProt O95747)
MARK1 (human) = MARK1 (human) (UniProt Q9P0L2)
CAMK1G (human) = CAMK1G (human) (UniProt Q96NX5)
ABL1 (human) = ABL1 (human) (UniProt P00519)
SLK (human) = SLK (human) (UniProt Q9H2G2)
MYLK (human) = MYLK (human) (UniProt Q15746)
EPHB3 (human) = EPHB3 (human) (UniProt P54753)
GRK7 (human) = GRK7 (human) (UniProt Q8WTQ7)
DAPK1 (human) = DAPK1 (human) (UniProt P53355)
ERBB2 (human) = ERBB2 (human) (UniProt P04626)
STK24 (human) = STK24 (human) (UniProt Q9Y6E0)
PRKCD (human) = PRKCD (human) (UniProt Q05655)
CDK7 CCNH MNAT1 (human) = CDK7 CCNH MNAT1 (human) (UniProt P50613+P51948+P51946)
CSF1R (human) = CSF1R (human) (UniProt P07333)
[1] = tested on: SGK1 (human), O00141 [S422D]
HIPK2 (human) = HIPK2 (human) (UniProt Q9H2X6)
CDK9 CCNT1 (human) = CDK9 CCNT1 (human) (UniProt P50750+O60563)
CDK3 CCNE1 (human) = CDK3 CCNE1 (human) (UniProt Q00526+P24864)
NEK3 (human) = NEK3 (human) (UniProt P51956)
PRKCA (human) = PRKCA (human) (UniProt P17252)
MAP3K5 (human) = MAP3K5 (human) (UniProt Q99683)
IKBKB (human) = IKBKB (human) (UniProt O14920)
ALK (human) = ALK (human) (UniProt Q9UM73)
EPHA8 (human) = EPHA8 (human) (UniProt P29322)
MERTK (human) = MERTK (human) (UniProt Q12866)
MUSK (human) = MUSK (human) (UniProt O15146)
PRKD2 (human) = PRKD2 (human) (UniProt Q9BZL6)
RPS6KB1 (human) = RPS6KB1 (human) (UniProt P23443)
SRC (human) = SRC (human) (UniProt P12931)
RPS6KA6 KD1 KD2 (human) = RPS6KA6 KD1 KD2 (human) (UniProt Q9UK32)
CDK5 CDK5R1 p25 (human) = CDK5 CDK5R1 p25 (human) (UniProt Q00535+Q15078)
AKT3 (human) = AKT3 (human) (UniProt Q9Y243)
VRK1 (human) = VRK1 (human) (UniProt Q99986)
PAK4 (human) = PAK4 (human) (UniProt O96013)
NTRK3 (human) = NTRK3 (human) (UniProt Q16288)

Chain of SLK (human) (Q9H2G2 whole entry, looked up): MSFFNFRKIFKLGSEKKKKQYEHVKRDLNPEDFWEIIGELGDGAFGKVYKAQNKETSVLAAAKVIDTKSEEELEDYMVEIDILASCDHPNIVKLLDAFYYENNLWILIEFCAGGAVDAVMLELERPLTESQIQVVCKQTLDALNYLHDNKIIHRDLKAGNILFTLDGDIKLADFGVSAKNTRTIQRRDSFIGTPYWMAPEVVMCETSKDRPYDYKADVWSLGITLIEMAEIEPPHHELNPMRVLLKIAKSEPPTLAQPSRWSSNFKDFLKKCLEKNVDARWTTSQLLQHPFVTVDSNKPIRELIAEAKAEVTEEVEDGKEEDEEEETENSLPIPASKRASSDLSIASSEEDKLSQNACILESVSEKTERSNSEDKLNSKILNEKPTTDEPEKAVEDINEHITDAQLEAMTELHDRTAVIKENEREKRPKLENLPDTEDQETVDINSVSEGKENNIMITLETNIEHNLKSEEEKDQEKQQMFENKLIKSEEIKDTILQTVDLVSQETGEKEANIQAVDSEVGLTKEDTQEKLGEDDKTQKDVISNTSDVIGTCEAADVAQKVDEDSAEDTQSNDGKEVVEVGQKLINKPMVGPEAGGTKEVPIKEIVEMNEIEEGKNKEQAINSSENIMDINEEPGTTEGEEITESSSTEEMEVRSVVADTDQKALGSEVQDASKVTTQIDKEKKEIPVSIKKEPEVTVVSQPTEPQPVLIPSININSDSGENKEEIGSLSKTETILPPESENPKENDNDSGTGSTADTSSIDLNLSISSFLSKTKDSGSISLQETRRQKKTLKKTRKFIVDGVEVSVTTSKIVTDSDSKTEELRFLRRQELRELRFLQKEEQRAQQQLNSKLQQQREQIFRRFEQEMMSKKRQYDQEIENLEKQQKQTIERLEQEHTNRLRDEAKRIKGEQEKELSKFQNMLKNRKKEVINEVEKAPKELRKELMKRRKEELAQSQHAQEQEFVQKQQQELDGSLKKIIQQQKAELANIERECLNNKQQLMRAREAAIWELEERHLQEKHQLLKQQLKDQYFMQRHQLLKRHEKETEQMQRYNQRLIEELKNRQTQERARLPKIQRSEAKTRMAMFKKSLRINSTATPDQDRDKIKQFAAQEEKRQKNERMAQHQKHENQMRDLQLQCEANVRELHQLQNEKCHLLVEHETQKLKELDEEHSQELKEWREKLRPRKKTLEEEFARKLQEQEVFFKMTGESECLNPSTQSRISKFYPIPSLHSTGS
Chain of CSF1R (human) (P07333 whole entry, looked up): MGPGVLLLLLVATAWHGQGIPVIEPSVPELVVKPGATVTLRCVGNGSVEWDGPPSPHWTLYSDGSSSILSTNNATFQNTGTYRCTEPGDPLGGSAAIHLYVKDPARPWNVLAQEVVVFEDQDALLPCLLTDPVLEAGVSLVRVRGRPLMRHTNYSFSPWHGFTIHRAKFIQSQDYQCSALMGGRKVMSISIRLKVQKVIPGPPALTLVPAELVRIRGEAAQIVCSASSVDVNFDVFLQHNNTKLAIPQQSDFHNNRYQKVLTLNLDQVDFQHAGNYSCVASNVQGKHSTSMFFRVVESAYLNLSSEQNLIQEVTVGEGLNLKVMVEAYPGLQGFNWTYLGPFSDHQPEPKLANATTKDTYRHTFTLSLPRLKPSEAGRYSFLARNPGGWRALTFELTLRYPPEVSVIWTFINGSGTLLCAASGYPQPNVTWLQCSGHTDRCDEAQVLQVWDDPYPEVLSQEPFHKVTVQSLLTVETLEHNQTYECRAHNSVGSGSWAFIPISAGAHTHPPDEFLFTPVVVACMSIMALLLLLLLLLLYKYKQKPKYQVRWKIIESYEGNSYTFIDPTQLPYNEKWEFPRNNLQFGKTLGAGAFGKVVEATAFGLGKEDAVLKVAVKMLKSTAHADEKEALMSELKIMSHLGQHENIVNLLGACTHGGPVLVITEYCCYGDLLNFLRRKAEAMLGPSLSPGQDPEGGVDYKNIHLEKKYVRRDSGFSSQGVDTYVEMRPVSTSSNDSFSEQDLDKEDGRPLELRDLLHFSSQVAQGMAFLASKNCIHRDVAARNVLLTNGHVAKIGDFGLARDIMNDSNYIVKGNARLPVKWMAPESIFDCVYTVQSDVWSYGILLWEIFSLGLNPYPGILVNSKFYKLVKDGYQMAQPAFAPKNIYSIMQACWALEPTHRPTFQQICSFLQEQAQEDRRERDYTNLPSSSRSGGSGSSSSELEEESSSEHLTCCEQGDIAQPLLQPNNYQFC
Chain of MARK1 (human) (Q9P0L2 whole entry, looked up): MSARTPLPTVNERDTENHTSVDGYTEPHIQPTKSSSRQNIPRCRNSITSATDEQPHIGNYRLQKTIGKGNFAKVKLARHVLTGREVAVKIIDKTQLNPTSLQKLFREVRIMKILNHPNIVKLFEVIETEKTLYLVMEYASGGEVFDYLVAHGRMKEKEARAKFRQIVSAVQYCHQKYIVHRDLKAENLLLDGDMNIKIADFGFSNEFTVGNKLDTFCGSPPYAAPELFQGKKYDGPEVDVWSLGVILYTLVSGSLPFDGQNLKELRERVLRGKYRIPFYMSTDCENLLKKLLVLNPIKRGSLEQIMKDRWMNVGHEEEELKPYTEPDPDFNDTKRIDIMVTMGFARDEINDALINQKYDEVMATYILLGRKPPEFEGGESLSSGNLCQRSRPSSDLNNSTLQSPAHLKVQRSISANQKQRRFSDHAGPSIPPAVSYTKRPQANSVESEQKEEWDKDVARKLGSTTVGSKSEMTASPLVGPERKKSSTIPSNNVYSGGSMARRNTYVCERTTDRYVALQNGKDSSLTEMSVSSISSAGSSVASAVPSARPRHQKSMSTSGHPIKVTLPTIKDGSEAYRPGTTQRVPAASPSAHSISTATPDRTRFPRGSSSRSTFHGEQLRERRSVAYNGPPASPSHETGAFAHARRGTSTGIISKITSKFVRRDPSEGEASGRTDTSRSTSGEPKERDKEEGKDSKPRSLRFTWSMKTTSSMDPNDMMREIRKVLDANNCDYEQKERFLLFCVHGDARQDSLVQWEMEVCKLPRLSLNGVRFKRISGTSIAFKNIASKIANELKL
Chain of PRKCD (human) (Q05655 whole entry, looked up): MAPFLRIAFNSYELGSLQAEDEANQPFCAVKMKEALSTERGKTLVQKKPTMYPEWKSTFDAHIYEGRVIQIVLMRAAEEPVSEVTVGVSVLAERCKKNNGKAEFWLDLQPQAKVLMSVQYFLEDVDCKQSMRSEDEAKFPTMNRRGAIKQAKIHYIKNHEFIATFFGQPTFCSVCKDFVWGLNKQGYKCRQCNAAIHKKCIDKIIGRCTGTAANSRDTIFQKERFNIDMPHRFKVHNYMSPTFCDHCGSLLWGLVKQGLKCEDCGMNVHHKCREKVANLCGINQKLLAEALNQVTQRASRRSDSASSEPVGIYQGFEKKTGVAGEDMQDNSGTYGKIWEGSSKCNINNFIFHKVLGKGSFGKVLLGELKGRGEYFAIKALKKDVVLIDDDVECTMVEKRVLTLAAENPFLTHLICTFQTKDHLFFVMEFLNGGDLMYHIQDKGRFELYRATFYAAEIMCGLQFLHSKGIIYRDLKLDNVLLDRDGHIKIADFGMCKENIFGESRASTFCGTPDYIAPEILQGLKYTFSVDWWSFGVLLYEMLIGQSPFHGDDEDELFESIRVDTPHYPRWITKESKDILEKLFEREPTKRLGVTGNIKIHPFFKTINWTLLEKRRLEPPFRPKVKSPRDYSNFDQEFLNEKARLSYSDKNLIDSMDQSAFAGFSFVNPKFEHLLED
Chain of CDK5 CDK5R1 p25 (human) (Q00535 whole entry, looked up): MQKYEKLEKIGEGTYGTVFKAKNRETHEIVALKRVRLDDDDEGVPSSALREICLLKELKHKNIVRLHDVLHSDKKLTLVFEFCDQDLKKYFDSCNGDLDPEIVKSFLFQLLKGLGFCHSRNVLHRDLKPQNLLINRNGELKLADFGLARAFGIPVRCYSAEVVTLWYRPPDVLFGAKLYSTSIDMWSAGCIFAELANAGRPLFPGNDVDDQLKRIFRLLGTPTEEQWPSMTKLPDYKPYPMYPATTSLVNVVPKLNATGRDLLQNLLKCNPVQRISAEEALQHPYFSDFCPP
Chain of CDK5 CDK5R1 p25 (human) (Q15078 whole entry, looked up): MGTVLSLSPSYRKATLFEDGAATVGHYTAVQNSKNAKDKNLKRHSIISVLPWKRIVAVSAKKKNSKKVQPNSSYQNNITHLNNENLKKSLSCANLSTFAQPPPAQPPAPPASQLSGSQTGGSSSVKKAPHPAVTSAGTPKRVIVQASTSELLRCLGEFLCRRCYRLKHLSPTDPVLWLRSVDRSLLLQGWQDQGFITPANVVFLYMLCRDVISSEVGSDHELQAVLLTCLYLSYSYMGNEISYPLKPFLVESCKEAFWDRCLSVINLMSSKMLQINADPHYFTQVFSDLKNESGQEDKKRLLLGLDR
Chain of CAMK1G (human) (Q96NX5 whole entry, looked up): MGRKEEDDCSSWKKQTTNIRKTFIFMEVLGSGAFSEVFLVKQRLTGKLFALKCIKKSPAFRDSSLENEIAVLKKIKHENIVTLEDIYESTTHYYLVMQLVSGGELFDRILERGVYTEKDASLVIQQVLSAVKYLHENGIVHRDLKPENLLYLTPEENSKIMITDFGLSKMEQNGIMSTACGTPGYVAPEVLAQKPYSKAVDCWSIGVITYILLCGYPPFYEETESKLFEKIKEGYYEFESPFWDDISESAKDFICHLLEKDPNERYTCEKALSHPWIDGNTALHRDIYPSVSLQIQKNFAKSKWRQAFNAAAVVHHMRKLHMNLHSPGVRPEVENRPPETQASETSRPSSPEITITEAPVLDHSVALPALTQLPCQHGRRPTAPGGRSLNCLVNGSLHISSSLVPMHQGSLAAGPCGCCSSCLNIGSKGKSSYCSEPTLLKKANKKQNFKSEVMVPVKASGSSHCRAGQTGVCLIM

Structure (SMILES): COc1cc2ncnc(Nc3ccc(O)c(Br)c3)c2cc1OC
- residual activity (MAP4K2 (human)): 101%
- residual activity (MAPK13 (human)): 102%
- residual activity (RIPK2 (human)): 36.7%
- residual activity (MAP3K3 (human)): 82%
- residual activity (HCK (human)): 52.2%
- residual activity (TTK (human)): 105%
- residual activity (OXSR1 (human)): 98.8%
- residual activity (MARK1 (human)): 94.8%
- residual activity (CAMK1G (human)): 103%
- residual activity (ABL1 (human)): 79.4%
- residual activity (SLK (human)): 50.3%
- residual activity (MYLK (human)): 84.6%
- residual activity (EPHB3 (human)): 88.1%
- residual activity (GRK7 (human)): 96.4%
- residual activity (DAPK1 (human)): 92%
- residual activity (ERBB2 (human)): 33.1%
- residual activity (STK24 (human)): 91.7%
- residual activity (PRKCD (human)): 97.3%
- residual activity (CDK7 CCNH MNAT1 (human)): 97%
- residual activity (CSF1R (human)): 95.3%
- residual activity [1]: 95.7%
- residual activity (HIPK2 (human)): 102%
- residual activity (CDK9 CCNT1 (human)): 91.4%
- residual activity (CDK3 CCNE1 (human)): 93.5%
- residual activity (NEK3 (human)): 88.4%
- residual activity (PRKCA (human)): 109%
- residual activity (MAP3K5 (human)): 98.6%
- residual activity (IKBKB (human)): 88.1%
- residual activity (ALK (human)): 12.5%
- residual activity (EPHA8 (human)): 88.3%
- residual activity (MERTK (human)): 87.7%
- residual activity (MUSK (human)): 78.2%
- residual activity (PRKD2 (human)): 69.7%
- residual activity (RPS6KB1 (human)): 82.1%
- residual activity (SRC (human)): 77.5%
- residual activity (RPS6KA6 KD1 KD2 (human)): 57.8%
- residual activity (CDK5 CDK5R1 p25 (human)): 98.4%
- residual activity (AKT3 (human)): 101%
- residual activity (VRK1 (human)): 86.4%
- residual activity (PAK4 (human)): 95.7%
- residual activity (NTRK3 (human)): 83.4%

Structure (SMILES): N#CCCc1ccc2c(c1)-c1[nH]c3ccc([N+](=O)[O-])cc3c1CC(=O)N2
- residual activity (MAP4K2 (human)): 14%
- residual activity (MAPK13 (human)): 98.2%
- residual activity (RIPK2 (human)): 21.5%
- residual activity (MAP3K3 (human)): 83.3%
- residual activity (HCK (human)): 63.8%
- residual activity (TTK (human)): 71.7%
- residual activity (OXSR1 (human)): 94.6%
- residual activity (MARK1 (human)): 67.4%
- residual activity (CAMK1G (human)): 103%
- residual activity (ABL1 (human)): 47.8%
- residual activity (SLK (human)): 87.2%
- residual activity (MYLK (human)): 95.2%
- residual activity (EPHB3 (human)): 102%
- residual activity (GRK7 (human)): 97.7%
- residual activity (DAPK1 (human)): 96.5%
- residual activity (ERBB2 (human)): 98.6%
- residual activity (STK24 (human)): 57.7%
- residual activity (PRKCD (human)): 74.9%
- residual activity (CSF1R (human)): 43.4%
- residual activity [1]: 87.9%
- residual activity (HIPK2 (human)): 106%
- residual activity (CDK9 CCNT1 (human)): 28.6%
- residual activity (CDK3 CCNE1 (human)): 39.7%
- residual activity (NEK3 (human)): 104%
- residual activity (PRKCA (human)): 80.9%
- residual activity (MAP3K5 (human)): 101%
- residual activity (IKBKB (human)): 96.3%
- residual activity (ALK (human)): 78.8%
- residual activity (EPHA8 (human)): 105%
- residual activity (MERTK (human)): 77.5%
- residual activity (MUSK (human)): 63%
- residual activity (PRKD2 (human)): 94.2%
- residual activity (RPS6KB1 (human)): 98%
- residual activity (SRC (human)): 30.8%
- residual activity (RPS6KA6 KD1 KD2 (human)): 13.4%
- residual activity (CDK5 CDK5R1 p25 (human)): 5.79%
- residual activity (AKT3 (human)): 95.5%
- residual activity (VRK1 (human)): 97.5%
- residual activity (PAK4 (human)): 86.4%
- residual activity (NTRK3 (human)): 61.2%

Structure (SMILES): c1ccc(-c2cnc(Nc3ccc(OCCN4CCCC4)cc3)s2)cc1
- residual activity (MAP4K2 (human)): 113%
- residual activity (MAPK13 (human)): 104%
- residual activity (RIPK2 (human)): 50.4%
- residual activity (MAP3K3 (human)): 99.2%
- residual activity (HCK (human)): 98.6%
- residual activity (TTK (human)): 102%
- residual activity (OXSR1 (human)): 85.3%
- residual activity (MARK1 (human)): 90.1%
- residual activity (CAMK1G (human)): 101%
- residual activity (ABL1 (human)): 63.3%
- residual activity (SLK (human)): 96.7%
- residual activity (MYLK (human)): 96.9%
- residual activity (EPHB3 (human)): 93.3%
- residual activity (GRK7 (human)): 90.2%
- residual activity (DAPK1 (human)): 95.1%
- residual activity (ERBB2 (human)): 101%
- residual activity (STK24 (human)): 99.6%
- residual activity (PRKCD (human)): 91.3%
- residual activity (CDK7 CCNH MNAT1 (human)): 102%
- residual activity (CSF1R (human)): 38.4%
- residual activity [1]: 83.6%
- residual activity (HIPK2 (human)): 97.5%
- residual activity (CDK9 CCNT1 (human)): 66.1%
- residual activity (CDK3 CCNE1 (human)): 97.6%
- residual activity (NEK3 (human)): 92.9%
- residual activity (PRKCA (human)): 106%
- residual activity (MAP3K5 (human)): 91.1%
- residual activity (IKBKB (human)): 98.1%
- residual activity (ALK (human)): 97%
- residual activity (EPHA8 (human)): 96.2%
- residual activity (MERTK (human)): 87.8%
- residual activity (MUSK (human)): 84.2%
- residual activity (PRKD2 (human)): 82.2%
- residual activity (RPS6KB1 (human)): 92.3%
- residual activity (SRC (human)): 75.3%
- residual activity (RPS6KA6 KD1 KD2 (human)): 94.5%
- residual activity (CDK5 CDK5R1 p25 (human)): 80.7%
- residual activity (VRK1 (human)): 89.1%
- residual activity (PAK4 (human)): 106%
- residual activity (NTRK3 (human)): 22.6%
